# Biological target: T1, SBD1 (Lactococcus lactis, UniProt Q9CES5)
# T1 construct: gene glnP; His tag cleaved off by TEV; expressed in E. coli MC1061; SEC purified
# T1 sequence (Q9CES5 27-251 limits assumed): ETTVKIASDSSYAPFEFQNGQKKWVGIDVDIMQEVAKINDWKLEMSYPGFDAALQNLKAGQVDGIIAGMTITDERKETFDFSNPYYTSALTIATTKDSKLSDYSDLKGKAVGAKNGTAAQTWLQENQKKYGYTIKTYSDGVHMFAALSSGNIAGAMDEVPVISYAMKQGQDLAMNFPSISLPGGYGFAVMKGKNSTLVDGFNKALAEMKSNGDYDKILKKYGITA
# Experiment: single-molecule nanopore current (SBD1 trapped in ClyA-AS), closed fraction vs ligand, Hill fit n = […]
# Format: binding
# Conditions: 150 mM NaCl, 15 mM Tris-HCl, pH 7.5, 25 °C, -90 mV, asparagine in trans; read-out: Kd^app
compound,measurement,value
NC(=O)C[C@H](N)C(=O)O [asparagine],Kd,500 ± 40 nM
